Measurements from patent publication US20020183725A1, “Masking Agent” (priority 2001, published 2002).

Columns and labels:
[1] = Light absorption study of masking solutions with laser radiation (Beer's law, transmission vs. concentration); assay type: physicochemical; settings: 213 nm laser wavelength; reciprocal of absorption coefficient
Experimental: Light absorbent studies were carried out using 213 nm radiation produced as the fifth harmonic wavelength of the fundamental 1064 nm wavelength of an Nd:YAG laser, with a pulse duration of 6 ns and repetition rate of 20 Hz. The pulse energy of the laser was monitored using an energy detector and a storage oscilloscope. The energy of the laser was obtained from the amplitude of the voltage signal delivered from the detector.
Beer's Law states that if light is passed through solution, energy is attenuated according to the formula:
Where: αM is the molar absorption coefficient in M^−1 cm^−1
C is the concentration in moles per liter
Ef and Ei are the final and initial pulse energies respectively.
In order to determine the amount of light absorbed (A) by the solution the molar absorption co-efficient is found from the gradient of the log-linear plot of Beer's law.
The absorption coefficient (α cm^−1) can then be calculated by multiplying the molar absorption coefficient by the concentration. Once the absorption coefficient is obtained, the penetration depth can be calculated from the reciprocal of this value.
Readings were taken for BSS maintaining the same dilutions. […] Five random readings were taken for each dilution and the mean calculated, in order to reduce the error from inter-pulse variations. […]

[2] = Fluorescence under the incident laser beam; assay type: physicochemical; settings: laser beam incident on it
Source text: This would be a useful property in PTK.

- Penetration Depth [1]: 50.3 μm
SMILES: CC1COc2c(N3CCN(C)CC3)c(F)cc3c(=O)c(C(=O)O)cn1c23 (centres unmarked) [Ofloxacin, 9-fluoro-2,3-dihydro-3-methyl-10-(4-methyl-1-piperazinyl)-7-oxo-7H-pyrido[1,2,3-de][1,4]benzoxazine-6-carboxylic acid]
- Fluorescence when the laser beam is incident [2]: fluoresces
